For ten compounds, viability, T/C and IC50 results are on record in PubChem BioAssay AID1963825 (Molecular Pharmacology Branch, DTP, NCI, 2024).

Several values for one entry are separate records, joined by “and”; a condition that tells them apart may be missing. Equal values may be shown once. Some results are limits rather than exact numbers.

A short description of this assay: Anticancer human tumor 997537-175-T-J1-PDC patient-derived colon adenocarcinoma cell line growth inhibition [POLQ]. The conditions noted are these: 997537-175-T-J1-PDC complex spheroid viability, combination with POLQ inhibitors; for viability, T/C: stronger effect = lower value. The method, then:
Multicellular complex tumor spheroid response to Polymerase (POL) inhibitors (novobiocin, ART-558, RP6685) in combination with a variety of drugs and investigational agents in selected tumor cell lines
The POL inhibitors (novobiocin, ART-558, and RP6685) were evaluated both individually and in combination with standard of care and investigational anticancer small molecules within a complex spheroid model of solid tumors. . Complex spheroids include a stromal component modeled by human endothelial cells (HUVEC) and fibroblasts modeled by human mesenchymal stem cells (MSCs). The concentration ranges selected for each drug and investigational agent were based upon clinically achievable concentrations if the clinical Cmax of the agent was known.
Compounds. The drugs and investigational agents: novobiocin (NSC847541), ART-558 (NSC835418), RP-6685 (NSC848927), peposertib (NSC802822), ceralasertib (NSC780249), elimusertib (NSC800525), camonsertib (NSC841442), AZD-1390 (NSC803789), olaparib (NSC753686), talazoparib (NSC767125), rucaparib (NSC756644), sotorasib (NSC818433), MRTX-1133 (NSC836407), SN-38 (NSC673596), topotecan (NSC609699), epotoside (NSC141540), doxorubicin (NSC123127), gemcitabine (NSC613327), 5-fluorouracil (NSC19893), paclitaxel (NSC125973), vemurafenib (NSC761431), MSA-2 (NSC828583), SN-011 (NSC837082), adavosertib (NSC754352), prexasertib (NSC758257), carboplatin (NSC241240) and oxaliplatin (NSC266046), were obtained from the National Cancer Institute (NCI) Developmental Therapeutics Program Chemical Repository (21). The FDA-approved anticancer drug set is available from the Developmental Therapeutics Program at https://dtp.cancer.gov/organization/dscb/obtaining/. […] The stock solutions were prepared in dimethyl sulfoxide (DMSO, Sigma-Aldrich, St. Louis, MO, cat. D2650), except for the platinum compounds which were prepared in saline (Quality Biological, Gaithersburg, MD, cat. 114-055-101), at 800-fold the tested concentration and stored at -70 degrees C prior to their use. All drugs and investigational agents were tested over a range starting from a high concentration at or near the clinical Cmax and decreasing in half-log increments. If the clinical Cmax for an agent had not been determined, the highest concentration tested was 10 microM, except for SN-38, which was tested at a high concentration of 1 microM.
Cell Culture. All cells were maintained in an incubator at 37 degrees C and 5% CO2 with 95% humidity. The PDC lines were cultured according to standard operating procedures established by the NCI PDMR (https://pdmr.cancer.gov). Table 3 of the manuscript, lists the cell lines along with the number of the three cell types plated to form the mct-spheroids and media for tumor cell growth. After thawing, all PDC lines, except 997537-175-T-J1-PDC and 415267-285-R-J2-PDC, were cultured in Matrigel-coated flasks prepared with a working solution of 1X Ham's F-12 nutrient mix, without supplementation (Thermo Fisher Scientific, cat. 11765054), 100 U/mL penicillin-streptomycin (Thermo Fisher Scientific, cat. 15140122), and 2.5% Matrigel (Corning Inc., Corning, NY, cat. 354248) for the first three passages. The two PDC lines 997537-175-T-J1-PDC and 415267-285-R-J2-PDC were cultured on uncoated flasks. The 857933-349-R-J2-PDC line was cultured in 6C/Colon 1B media containing advanced DMEM/F-12 (Thermo Fisher Scientific, cat. 12634028), 10 mM HEPES (Thermo Fisher Scientific, cat. 15630080), 1X GlutaMAX supplement (Thermo Fisher Scientific, cat. 35050061), 0.1 mg/mL primocin (InvivoGen, San Diego, CA, cat. ant-pm-2), 10% defined fetal bovine serum, heat inactivated (HyClone Laboratories Inc., Logan, UT, cat. SH30070.03HI), 50% L-WRN conditioned media (ATCC, cat. CRL-3276), 1.25 mM N-Acetyl-L-cysteine (Sigma-Aldrich, cat. A9165), 10 mM nicotinamide (Sigma-Aldrich, cat. N0636), 1X B-27 supplement (Thermo Fisher Scientific, cat. 17504044), 1X N-2 supplement (Thermo Fisher Scientific, cat. […]
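Further: luminescence signal used as a surrogate for viable cells; spheroids exposed to drugs for seven days before readout.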

On to `C#Cc1c(F)ccc2cc(O)cc(-c3ncc4c(N5CC6CCC(C5)N6)nc(OCC56CCCN5CC(F)C6)nc4c3F)c12` (stereo unspecified), for which the viability, T/C was 105% and 99.2% and 101% (compound 0.0316 µM); 106% and 111% and 92.5% (compound 0.1 µM); 92.2% and 97.5% and 113% (compound 0.316 µM); 105% and 93.2% and 113% (compound 1 µM); 110% and 93.3% and 94.4% (compound 3.16 µM); 106% and 94.6% and 107% (compound 10 µM). Besides, under “curve of compound”, the 50% inhibitory concentration (IC50) is > 10 µM.
In the case of `C=CC(=O)N1CCN(c2nc(=O)n(-c3c(C)ccnc3C(C)C)c3nc(-c4c(O)cccc4F)c(F)cc23)C(C)C1` (stereo unspecified), the viability, T/C (compound 0.0316 µM) is 88.3% and 103% and 94.8%; the viability, T/C (compound 0.1 µM) was 92.3% and 93.2% and 91.2%; the viability, T/C (compound 0.316 µM) was 92.7% and 102% and 101%; the viability, T/C (compound 1 µM) was 99.6% and 91.8% and 112%; the viability, T/C (compound 3.16 µM) was 103% (2×) and 104%; the viability, T/C (compound 10 µM) was 101% and 89.6% and 87.3%. The IC50 (curve of compound) is > 10 µM.
Regarding `CC(C)n1c(=O)n(C)c2cnc3cc(F)c(-c4ccc(OCCCN5CCCCC5)nc4)cc3c21`, the viability, T/C is 90.1% and 93% and 37.9% (compound 0.0316 µM); 103% and 96% and 38.9% (compound 0.1 µM); 100% and 83.5% and 34.2% (compound 0.316 µM); 97.9% and 102% and 32.9% (compound 1 µM); 85.7% and 92.1% and 37.8% (compound 3.16 µM); 73.3% and 87.2% and 43.2% (compound 10 µM).
For the compound `CC1COCCN1c1cc(C2(O)CC3CCC(C2)O3)c2cnn(-c3ccn[nH]3)c2n1` (stereo unspecified), the viability, T/C was 80.8% and 88.2% and 99.8% (compound 0.0316 µM); 88.8% and 81.9% and 65.3% (compound 0.1 µM); 57.4% and 42.1% and 58.8% (compound 0.316 µM); 49% and 58.5% and 56.2% (compound 1 µM); 61.2% and 67.5% and 61.5% (compound 3.16 µM); 62.1% and 47.6% and 48.3% (compound 10 µM). Where the note is “curve of compound”, the IC50 is > 10 µM.
Consider `CCc1cc2c(N3CCc4c(cc(Cn5ccnc5)cc4-c4cn(C)nc4C(F)(F)F)C3=O)cc(C)nc2c(OC)n1`, for which the viability, T/C was 90.5% and 98.7% and 107% (compound 0.0316 µM); 95.7% and 82% and 107% (compound 0.1 µM); 90.7% and 71.5% and 94.3% (compound 0.316 µM); 78.7% and 91.3% and 92.2% (compound 1 µM); 69.9% and 86.2% and 67.7% (compound 3.16 µM); 58% and 61.9% and 41.5% (compound 10 µM). Further, where the note is “curve of compound”, the IC50 was > 10 µM and 6.97 µM.
Consider `CCc1cc2c(N3CCc4c(cc(Cn5ccnc5)cc4-c4cn(C)nc4C(F)(F)F)C3=O)ccnc2c(OC)n1`, for which the viability, T/C (compound 0.0316 µM) is 95.3% and 92.8% and 103%; the viability, T/C (compound 0.1 µM) is 79.7% and 104% and 98.2%; the viability, T/C (compound 0.316 µM) is 98.5% and 76.2% and 96.9%; the viability, T/C (compound 1 µM) is 84.6% and 90.4% and 91.4%; the viability, T/C (compound 3.16 µM) is 76.5% and 68.3% and 72.7%; the viability, T/C (compound 10 µM) was 57.5% and 79.9% and 53.8%. Moreover, for the setting “curve of compound”, the IC50 is > 10 µM.
On to `COC1C(OC(N)=O)C(O)C(Oc2ccc3c(O)c(NC(=O)c4ccc(O)c(CC=C(C)C)c4)c(=O)oc3c2C)OC1(C)C` (stereo unspecified), for which the viability, T/C reads like this: (compound 0.1 µM) 97.2% [middle of 13 runs]; (compound 0.316 µM) 97.4% [middle of 13 runs]; (compound 1 µM) 95.6% [middle of 13 runs]. Besides, for the setting “compound alone, run of 11/27/2023”, the half-inhibitory concentration (IC50) was > 10 µM.
With `COc1cc2cc(C(=O)CCC(=O)O)sc2cc1OC`, the viability, T/C (compound 0.0316 µM) is 102% and 105% and 95.7%; the viability, T/C (compound 0.1 µM) was 99% and 93.1% and 94.9%; the viability, T/C (compound 0.316 µM) was 85.6% and 113% and 104%; the viability, T/C (compound 1 µM) was 107% and 89.6% and 100%; the viability, T/C (compound 3.16 µM) was 106% and 100% and 91.6%; the viability, T/C (compound 10 µM) is 98.2% and 83.3% and 99.8%. Also, the half-inhibitory concentration (IC50) (curve of compound) was > 10 µM.
As to `COc1ccc([C@@H](O)c2cc(-c3ncnc4cc(N5CCOCC5)ccc34)c(F)cc2Cl)nn1`, the viability, T/C is, setting by setting: (compound 0.0316 µM) 107% and 102% and 108%; (compound 0.1 µM) 103% and 94.5% and 93.7%; (compound 0.316 µM) 90.6% and 96.5% and 106%; (compound 1 µM) 100% and 105% and 104%; (compound 3.16 µM) 94.8% and 87.4% and 97.1%; (compound 10 µM) 83.2% and 80.4% and 92%. Also, where the note is “curve of compound”, the IC50 was > 10 µM.
Take `O=C(Nc1ccc(O)c(NS(=O)(=O)c2ccc(F)cc2)c1)c1ccc(-c2ccccc2)cc1`: the viability, T/C runs as follows: (compound 0.0316 µM) 103% and 89.4% and 123%; (compound 0.1 µM) 101% and 92.4% and 98.4%; (compound 0.316 µM) 113% and 97.4% and 81.8%; (compound 1 µM) 88.3% and 109% and 103%; (compound 3.16 µM) 99.2% and 116% and 91.7%; (compound 10 µM) 98.9% and 103% and 91.2%. For the same compound, the IC50 (curve of compound) was > 10 µM.
